Structures are written as SMILES. “And” between values parts separate entries of the source, which are not always exact repeats. Equal values may be shown once. Where a name gives a salt, the structure may show the parent alone. Marks after values point to notes of the source that are not given here.

A short description of data set [1]: Forced precipitation of API HCl salt and API FB-CapAcid formulation with 2M NaOH. The format is physicochemical. The note with it: 70 mg/mL API in FB equivalents, 1 mL scale, 1 μL increments of 2M NaOH, starting pH 7.0±0.1.
Data set [2] can be described thus: Final pH and average osmolality of API Captisol formulations and API salt solutions.
The nature of data set [3]: Theoretical vs measured osmolarities of API-Cap formulations. The format is physicochemical. To be noted: API-Cap Formulations at 70 mg/mL freebase equivalents; for Percentage of Theoretical: measured osmolality vs calculated osmolarity.
Data set [4] in a line: Solubility of DMT, 5-MeO-DMT and Mescaline in Captisol sodium solution. Type of data set: physicochemical. The note with it: equimolar Captisol Sodium form in water; for Appearance after filtration / Osmolality / pH: agitated overnight; for Amine Conc.: total 10 g, agitated at room temperature overnight, after filtration. The procedure:
An equimolar amount of Captisol Sodium form and 5 mL HPLC grade water were added to three 20 mL vials equipped with stir bars. Once a solution was formed, 638 mg of DMT, 700 mg of 5-MeO-DMT, and 700 mg of Mescaline were added to each vial. Each solution was diluted with water to a total solution weight of 10 g. The mixtures were agitated at room temperature overnight and analyzed.

A short description of data set [5]: physchem. The note with it: water, thermodynamic from solid.
Data set [6] can be described thus: Forced precipitation of racemic ketamine with 2M NaOH. The note with it: 70 mg/mL ketamine FB equiv., 2 mL volume, 2M NaOH after pH 5.5 in 1-2 μL volumes. The format is physicochemical. The procedure:
The tests were conducted on a 2 mL volume. Base was added in 1-2 μL volumes.

The nature of data set [7]: Osmolality of ketamine HCl and ketamine-Captisol complexes. To be noted: for Mean Osmolality: each sample run in triplicate. Type of data set: physicochemical. The procedure:
Osmolality. Osmolality readings were obtained on an Advanced Instruments Advanced™ Micro Osmometer Model 3300 (Advanced Instruments, Inc. Norwood, MA, USA). Saline solutions (0.9% and 3%) were freshly prepared with sodium chloride (Fisher Scientific, Fair Lawn, NJ) and run as positive controls. Each sample was calculated as the mean from back-to-back triplicate measurements.

Setting [8] is: CapAcid-API Freebase Formulation (70 mg/mL API FB, 1.1 molar equiv CapAcid).
Where [9] appears, read: Captisol salt formulation with Sumatriptan stoichiometric succinate salt, 70 mg/mL FB equiv.
Where [10] appears, read: salt solution, Sumatriptan stoichiometric succinate salt, 70 mg/mL FB equiv.
Where [11] appears, read: API HCl salt (70 mg/mL in FB equiv).
Setting [12] is: Captisol-API HCl salt formulation (70 mg/mL API HCl salt in FB equiv, 1.1 molar equiv Captisol in CapAcid equiv).
The mark [13] stands for this setting: Captisol salt formulation with nicotine Stoichiometric Fumarate salt, 70 mg/mL FB equiv.
Setting [14] is: salt solution, nicotine Stoichiometric Fumarate salt, 70 mg/mL FB equiv.
[15] abbreviates: salt solution, 5-IAI HCl 35 mg/mL FB equiv.
Setting [16] is: Captisol salt formulation with DXM HBr 15 mg/mL FB equiv.
Setting [17] is: salt solution, DXM HBr 15 mg/mL FB equiv.

Regarding `Cc1cccc(C(=O)C(C)N(C)C)c1.Cl` (stereo not shown) [Me-3-MMC HCl, Me-3-MMC hydrochloride], in data set [1], the “Volume of Base need for Precipitation” value is listed as 6.5* μL.
Consider `CNS(=O)(=O)Cc1ccc2[nH]cc(CCN(C)C)c2c1` [Sumatriptan, 1-(3-(2-(dimethylamino)ethyl)-1H-indol-5-yl)-N-methylmethanesulfonamide, reference compound], for which the Osmolality in data set [2] (setting [8]) came to 109 mOsm/kg; in data set [2] (setting [9]), 858 mOsm/kg; in data set [2] (setting [10]), 293 mOsm/kg. Moreover, the pH in data set [2] (setting [8]) stood at 7.06; in data set [2] (setting [9]), 6.99; in data set [2] (setting [10]), 4.57. The “Measured Osmolality” value in data set [3] amounted to 109 mOsmol/L.
Turning to `CNC1(c2ccccc2Cl)CCCCC1=O` (stereo not shown) [Ketamine], in data set [3], the “Measured Osmolality” value is given as 291 mOsmol/L and the “Percentage of Theoretical” value is reported as 84.6%.
As for `CNC(C)Cc1ccc2occc2c1` (stereo not shown) [Example 5-MAPB, 1-(benzofuran-5-yl)-N-methylpropan-2-amine], the Osmolality is 556 mOsm/kg in data set [2] (setting [11]), 215 mOsm/kg in data set [2] (setting [8]) and 1,004 mOsm/kg in data set [2] (setting [12]). The pH in data set [2] (setting [11]) was 3.16; in data set [2] (setting [8]), 7.10; in data set [2] (setting [12]), 7.15. Moreover, the “Measured Osmolality” value in data set [3] came out at 215 mOsmol/L.
Consider `CNC(C)Cc1cccc(F)c1.Cl` (stereo not shown) [3-FMA HCl], for which the “Volume of Base need for Precipitation” value in data set [1] came out at 37 µL.
As for `COc1cc(CCN)cc(OC)c1OC` [Mescaline], in data set [4], the Appearance after filtration entry was “Clear/light yellow”, the Osmolality turned out to be 570 mOsm/kg, the pH is listed as 11.69 and the “Amine Conc.” value is on record as 77.7 mg/mi.
Regarding `CNC1(c2ccccc2)CCCCC1=O` (stereo not shown) [DCK, 2-(methylamino)-2-phenylcyclohexan-1-one], in data set [2] (setting [11]), the Osmolality turned out to be 601 mOsm/kg and the pH worked out at 4.73. For the same compound, in data set [2] (setting [8]), the Osmolality stood at 310 mOsm/kg and the pH turned out to be 7.00. In addition, in data set [2] (setting [12]), the Osmolality is listed as 1,086 mOsm/kg and the pH turned out to be 6.98. In addition, in data set [3], the “Measured Osmolality” value is on record as 310 mOsmol/L and the “Percentage of Theoretical” value is listed as 77.1%.
In the case of `CN1CCC[C@H]1c1cccnc1` [Nicotine, S-(−)-nicotine, reference compound], in data set [2] (setting [8]), the Osmolality was 555* mOsm/kg and the pH is 7.02*. For the same compound, in data set [2] (setting [13]), the Osmolality is on record as 2,006 mOsm/kg and the pH came out at 6.97. For the same compound, in data set [2] (setting [14]), the Osmolality is 682 mOsm/kg and the pH is 3.80. In data set [3], the “Measured Osmolality” value was 555 mOsmol/L and the “Percentage of Theoretical” value is listed as 110.1%.
As for `CNC(C)C(=O)c1cccc(C)c1` (stereo not shown) [Example 3-MMC, 2-(methylamino)-1-(m-tolyl)propan-1-one], the Osmolality was 636 mOsm/kg in data set [2] (setting [11]), 312 mOsm/kg in data set [2] (setting [8]) and 1,190* mOsm/kg in data set [2] (setting [12]). Besides, the results for the pH in data set [2] (setting [11]), in data set [2] (setting [8]) and in data set [2] (setting [12]) were 4.76, 6.99 and 6.98, respectively. In addition, in data set [3], the “Measured Osmolality” value turned out to be 312 mOsmol/L.
Take `CCN(CC)CC(=O)Nc1c(C)cccc1C` [Lidocaine HCl, reference compound]: in data set [1], the “Volume of Base need for Precipitation” value was determined as 5 µL.
With `NC1Cc2ccc(I)cc2C1` (stereo not shown) [Example 5-IAI, 5-iodo-2,3-dihydro-JH-inden-2-amine], the Osmolality in data set [2] (setting [8]) is on record as 119 mOsm/kg; in data set [2] (setting [12]), 621 mOsm/kg; in data set [2] (setting [15]), 221 mOsm/kg. In addition, the results for the pH in data set [2] (setting [8]), in data set [2] (setting [12]) and in data set [2] (setting [15]) were 6.97, 6.98 and 4.62, respectively. The “Measured Osmolality” value in data set [3] was determined as 119 mOsmol/L.
As to `CN(C)CCc1c[nH]c2ccccc12` [DMT, N,N-Dimethyltryptamine], in data set [4], the Appearance after filtration entry is recorded as “Clear/colorless”, the Osmolality came out at 300 mOsm/kg, the pH is 11.10 and the “Amine Conc.” value was 13.6 mg/mi.
On to `CCN(CC)CC(=O)Nc1c(C)cccc1C` [Lidocaine, reference compound], for which the Osmolality is 543 mOsm/kg in data set [2] (setting [11]), 304 mOsm/kg in data set [2] (setting [8]) and 844 mOsm/kg in data set [2] (setting [12]). Besides, the figures for the pH in data set [2] (setting [11]), in data set [2] (setting [8]) and in data set [2] (setting [12]) were 4.60, 6.99 and 6.95, respectively. The “Measured Osmolality” value in data set [3] turned out to be 304 mOsmol/L. In addition, the “Percentage of Theoretical” value in data set [3] is recorded as 87.0%.
As for `CNC(C)Cc1ccc2occc2c1.Cl` (stereo not shown) [5-MAPB HCl], in data set [1], the “Volume of Base need for Precipitation” value was 47* μL.
As a reminder, the solubility is the concentration that dissolves in the medium under given conditions. Compound `COc1ccc2c(c1)[C@]13CCCC[C@@H]1[C@H](C2)N(C)CC3` [DXM HBr hydrate, dextromethorphan HBr hydrate] registered a solubility at 48 h in data set [5] of 16.4 mg/mL.
For the compound `CNC1(c2ccccc2F)CCCCC1=O` (stereo not shown) [Example 2-F-DCK, 2-(2-fluorophenyl)-2-(methylamino)cyclohexan-1-one], in data set [2] (setting [11]), the Osmolality turned out to be 560 mOsm/kg and the pH worked out at 4.27. In addition, in data set [2] (setting [8]), the Osmolality is 373 mOsm/kg and the pH is listed as 6.97. For the same compound, the Osmolality in data set [2] (setting [12]) is reported as 1,046 mOsm/kg. In data set [3], the “Measured Osmolality” value was found to be 373 mOsmol/L and the “Percentage of Theoretical” value is recorded as 100.9%.
`CNC(C)Cc1cccc(F)c1` (stereo not shown) [Example 3-FMA, 1-(3-fluorophenyl)-N-methylpropan-2-amine]: the figures for the Osmolality in data set [2] (setting [11]), in data set [2] (setting [8]) and in data set [2] (setting [12]) were 706 mOsm/kg, 337 mOsm/kg and 1,388 mOsm/kg, respectively. Further, the pH in data set [2] (setting [11]) stood at 5.17; in data set [2] (setting [8]) it was 6.78; in data set [2] (setting [12]), 7.01. The “Measured Osmolality” value in data set [3] was determined as 337 mOsmol/L.
In the case of `Cc1cccc(C(=O)C(C)N(C)C)c1` (stereo not shown) [Me-3-MMC, 2-(dimethylamino)-1-(m-tolyl)propan-1-one], the Osmolality in data set [2] (setting [11]) is recorded as 578 mOsm/kg; in data set [2] (setting [8]) it was 321 mOsm/kg; in data set [2] (setting [12]), 1,151 mOsm/kg. In addition, the pH in data set [2] (setting [11]) is on record as 4.44; in data set [2] (setting [8]), 6.95; in data set [2] (setting [12]) it was 7.00. Besides, the “Measured Osmolality” value in data set [3] was 321 mOsmol/L.
`COc1ccc2[nH]cc(CCN(C)C)c2c1` [Example 5-MeO-DMT, 5-methoxy-N,N-dimethyltryptamine]: in data set [4], the Appearance after filtration entry was “Clear/faint yellow”, the Osmolality is given as 316 mOsm/kg, the pH worked out at 11.03 and the “Amine Conc.” value was determined as 14.6 mg/mi.
Take `CN1CC[C@]23c4c5ccc(O)c4O[C@H]2[C@@H](O)C=C[C@H]3[C@H]1C5` [Morphine, reference compound]: in data set [2] (setting [8]), the Osmolality is 166 mOsm/kg and the pH worked out at 6.09. For the same compound, in data set [3], the “Measured Osmolality” value is on record as 166 mOsmol/L and the “Percentage of Theoretical” value is listed as 57.9%.
Turning to `COc1ccc2c(c1)[C@]13CCCC[C@@H]1[C@H](C2)N(C)CC3` [DXM, dextromethorphan, reference compound], the Osmolality is recorded as 113 mOsm/kg in data set [2] (setting [8]), 145* mOsm/kg in data set [2] (setting [16]) and 91 mOsm/kg in data set [2] (setting [17]). In addition, the pH in data set [2] (setting [8]) was 6.95; in data set [2] (setting [16]) it was 7.05; in data set [2] (setting [17]), 5.47. The “Measured Osmolality” value in data set [3] is 113 mOsmol/L.
Consider `CNC1(c2ccccc2Cl)CCCCC1=O` (racemic) [Ketamine HCl], for which, in data set [6], the “Mean Volume Base to precip ± SEM” value was 4 ± 0 µL. Besides, the “Mean Osmolality” value in data set [7] (75 mg/mL) is listed as 533.3 mOsm; in data set [7] (100 mg/mL), 703.0 mOsm. Also, the “Average osmolality ± SEM” value in data set [7] ([Ketamine] 70 mg/mL FB equiv., HCl) was 527 ± 2.69 mOsm/kg and 527.0 ± 2.7 mOsm/kg; in data set [7] ([Ketamine] 96 mg/mL FB equiv., HCl), 704.4 ± 9.95 mOsm/kg and 704.4 ± 9.9 mOsm/kg; in data set [7] ([Ketamine] 100 mg/mL FB equiv.), 736.83 ± 3.7 mOsm/kg.

The values above are taken from patent US12472201B2, “Complexing agent salt formulations of pharmaceutical compounds” (Bexson Biomedical, Inc., priority 2020, dated 2025).
